Values joined by “and” are separate entries in the source; they are usually repeats but may differ in a detail not shown here. Equal values may be shown once.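 Where inhibition never reached the appropriate level, the endpoint shown equals the highest concentration tested. Otherwise, values were interpolated linearly from a five-concentration, 48-hour dose response in 96-well plates. Here, GI50 denotes the concentration required for 50% inhibition of growth. TGI marks complete inhibition of growth.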
Legend:
Assay in all cases: NCI-60 cell line screen, 48 h
UACC-62 melanoma = system: UACC-62 melanoma
SK-MEL-2 melanoma = system: SK-MEL-2 melanoma
A498 renal = system: A498 renal
SW-620 colon = system: SW-620 colon
RXF 393 renal = system: RXF 393 renal
OVCAR-5 ovarian = system: OVCAR-5 ovarian
SK-MEL-5 melanoma = system: SK-MEL-5 melanoma
HL-60(TB) leukemia = system: HL-60(TB) leukemia
T-47D breast = system: T-47D breast
MCF7 breast = system: MCF7 breast

Row | SMILES | TGI (UACC-62 melanoma) | TGI (SK-MEL-2 melanoma) | TGI (A498 renal) | TGI (SW-620 colon) | TGI (RXF 393 renal) | TGI (OVCAR-5 ovarian) | TGI (SK-MEL-5 melanoma) | TGI (HL-60(TB) leukemia) | TGI (T-47D breast) | TGI (MCF7 breast) | GI50 (HL-60(TB) leukemia) | GI50 (SK-MEL-5 melanoma)
1 | CC1(Cl)CC(C)(/C=C/Cl)C(Cl)CC1Cl (centres undefined) | 34.1 µM | 26.3 µM | 34 µM | 30.8 µM | 30.6 µM | 34.2 µM | 30.2 µM | – | – | – | – | –
2 | COc1cccc(CCCNC(=O)Cc2ccccc2CO)c1 | > 100 µM | > 100 µM | > 100 µM | > 100 µM | – | > 100 µM | > 100 µM | > 100 µM | > 100 µM | > 100 µM | – | –
3 | CC(C)(CN1CCCCC1)C(=O)CC(SCCS(=O)(=O)O)c1ccc(Cl)cc1 (centres undefined) | 13.6 µM | 18.8 µM | 13.5 µM | 9.07 µM | 9.92 µM | 11.4 µM | 20.8 µM | 8.13 µM | – | 11.8 µM | – | –
4 | C=CCN1C(=O)CC(=O)N(NC2=NNC3(C(=O)N2)c2ccccc2-c2ccccc23)C1=S | > 100 µM | 74.5 µM | > 100 µM | > 100 µM | > 100 µM | > 100 µM | > 100 µM | 66.2 µM | – | > 100 µM | – | –
5 | C/C(Nc1ccc(Cl)cc1)=C1/CCOC1=O | > 100 µM | > 100 µM | > 100 µM | > 100 µM | > 100 µM | > 100 µM | – | > 100 µM | > 100 µM | > 100 µM | – | –
6 | CCOC(=O)C1CCC(=O)N1C(=O)c1ccc(Cl)cc1 (centres undefined) | > 100 µM | – | > 100 µM | > 100 µM | > 100 µM | > 100 µM | > 100 µM | > 100 µM | > 100 µM | > 100 µM | – | –
7 | CC(=O)C(C(C)=O)[C@H]1OC(C)(C)O[C@H]1[C@H]1COC(C)(C)O1 | > 100 µM | 58.8 µM | > 100 µM | > 100 µM | > 100 µM | > 100 µM | > 100 µM | – | > 100 µM | > 100 µM | – | –
8 | C(=C\c1c2oc(-c3ccccc3)cc(-c3ccccc3)c-2c2ccccc12)/C=C1\c2ccccc2-c2c(-c3ccccc3)cc(-c3ccccc3)[o+]c21 | > 100 µM | > 100 µM | > 100 µM | > 100 µM | > 100 µM | > 100 µM | > 100 µM | > 100 µM | – | – | – | –
9 | COc1ccc(/C=N/Nc2nnc3c(n2)c2ccccc2c2nn(-c4ccccc4Cl)nc23)cc1 | > 100 µM | > 100 µM | > 100 µM | > 100 µM | > 100 µM | > 100 µM | > 100 µM | – | > 100 µM | – | – | –
10 | O=C(c1ccccc1)c1cc(Cl)ccc1NCn1nnc2ccccc21 | > 100 µM | > 100 µM | > 100 µM | > 100 µM | > 100 µM | – | – | 88.8 µM | – | – | – | –
11 | CC(C)=CCCC1(C)C2COC(=O)C21 (centres undefined) | > 100 µM | > 100 µM | > 100 µM | > 100 µM | > 100 µM | > 100 µM | > 100 µM and 34.6 µM | > 100 µM and 40.9 µM | – | > 100 µM | 43.3 µM and 18.8 µM | > 100 µM and 17.5 µM

From PubChem BioAssay (NCI)
